Experimental findings from patent US20250206734A1, “BICYCLIC HETEROCYCLES AS MRGPRX2 ANTAGONISTS” (Incyte Corporation, priority 2023, published 2025) are described below.

Usually IC50 stands for the concentration that gives 50% inhibition.

Common to all, as to assay type: cell-based
The target in test [1] is T1, MRGPRX2 (Homo sapiens, UniProt Q96LB1).
T1 sequence (Q96LB1 1-330): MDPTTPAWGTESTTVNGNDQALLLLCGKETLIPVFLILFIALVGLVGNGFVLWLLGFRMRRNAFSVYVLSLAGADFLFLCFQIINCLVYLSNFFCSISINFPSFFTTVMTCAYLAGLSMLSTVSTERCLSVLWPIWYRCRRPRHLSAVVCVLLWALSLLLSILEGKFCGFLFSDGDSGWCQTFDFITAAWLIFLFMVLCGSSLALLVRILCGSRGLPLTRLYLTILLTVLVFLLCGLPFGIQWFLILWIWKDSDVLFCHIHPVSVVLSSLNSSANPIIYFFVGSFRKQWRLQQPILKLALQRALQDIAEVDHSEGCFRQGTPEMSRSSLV
Nature of the test: MRGPRX2 IP1 HTRF Assay. Also noted: host or cells: CHO-K1. As to conditions: CHO-K1 cells stably expressing human MRGPRX2; IP1 accumulation; agonist Cortistatin 14 1 μM. An excerpt:
Example B: MRGPRX2 IP1 HTRF Assay
This assay measures compound inhibition of myo-Inositol 1 phosphate (IP1) accumulation in CHO-K1 cells. Chinese hamster ovary (CHO-K1) cells stably expressing human MRGPRX2 were purchased from GenScript (Piscataway, NJ).
For the HTRF IP1 determination, an IP-One GqKit (Perkin Elmer Cisbio, Waltham, MA), which includes all reagents and buffers in this protocol, was used. The cells were maintained in culture medium (Ham's F-12K) containing 10% (v/v) FBS, and 200 μg/mL Zeocin. For the assay, the cells were harvested and resuspended in culture medium with 2% FBS and without Zeocin, then were passed through a 40 μm filter. Cells were added at 20000 cells in a 5 μL/well to a 384-well white small volume cell culture plate (Greiner VWR, Radnor, PA) which contained 50 nL/well of test compound serially diluted at a selected concentration range in DMSO. 5 μL/well of prepared 2× Stimulation Buffer2 was then added to plates and was incubated at 37° C. with 5% CO2 for 1 h. 5 μL/well of agonist Cortistatin 14 (Bio-TechneR&D Systems, Minneapolis, MN) in 1× Stimulation Buffer 2, for a 1 μM final concentration, was then added to plates and incubated at 37° C. with 5% CO2 for 1 h. 6 μL/well of 1:20 diluted Detection Reagent Mix (d2 and Cryptate) was added to the plates and incubated for 1 h in the dark. Plates were read on the PHERAstar microplate reader (BMG Labtech Cary, NC) to determine the HTRF ratio of the acceptor and donor emission signals. The IP1 concentrations were calculated from a standard curve following the IP-One GQ kit instructions. Wells with DMSO only and wells with high concentration of reference antagonist were used as controls for normalization. Compound IC50 curves were globally fitted with 3- or 4-parameter Hill equation in a Genedata Screener (Genedata Basel, Switzerland).
Background: In TR-FRET formats the signal depends on donor and acceptor labels being close together.

The target of test [2] is T1, MRGPRX2. Nature of the test: MRGPRX2 β-Arrestin Assay. Also noted: host or cells: PathHunter CHO-K1. Particulars: PathHunter CHO-K1 MRGPRX2 β-Arrestin cell line; agonist Cortistatin 14 0.25 μM. An excerpt: Example C: MRGPRX2 β-Arrestin Assay
This assay measures compound inhibition of β-Arrestin recruitment, which is part of the G protein-independent pathway that results from the ligand-activated GPCR phosphorylation by specific GPCR kinases. The PathHunter CHO-K1 MRPGRX2 B-Arrestin Cell line stably expressing ProLink tagged MRGPRX2 and Enzyme Acceptor Tagged B-Arrestin was purchased from Eurofins DiscoverX, (Fremont, CA).
The cells were maintained in culture medium from the Europhins DiscoverX Cell Culture Kit-107 which includes FBS, hygromycin B and G418. For the assay, the cells were harvested and were resuspended with Cell Plating Reagent 2 (Eurofins DiscoverX). Cells were added 10000 cells in 25 μL/well to a 384-well black cell culture plate (Greiner VWR, Radnor, PA) which contained 125 nL/well of compound at a selected serially diluted concentration range or DMSO. The plate was incubated at 37° C. with 5% CO2 for 1 h. 2 μL/well of agonist Cortistatin 14 was diluted in Protein Dilution Buffer, (Eurofins DiscoverX) for a final concentration of 0.25 μM, was added and the plate was incubated at 37° C. with 5% CO2 for 90 min. 14 μL/well of Detection Reagent Mix (PathHunter Detection Kit, Eurofins DiscoverX) was added to the plates and further incubated for 1 h in the dark. Plates were read on the PHERAstar microplate reader (BMG Labtech Cary, NC) measuring luminescence 0.1 to 1 s per well. Data was normalized using DMSO only wells and wells with high concentration of reference antagonist as controls. Compound IC50 curves were globally fitted with 3- or 4-parameter Hill equation in a Genedata Screener (Genedata Basel, Switzerland).

Test [3] has as its target T1, MRGPRX2. Nature of the test: MRGPRX2 FLIPR Calcium Mobilization Assay. Particulars: CHO-K1 cells stably expressing human MRGPRX2; Ca2+ release; agonist Cortistatin-14 at EC80. Also noted: host or cells: CHO-K1. On the procedure: Example A. MRGPRX2 FLIPR Calcium Mobilization Assay
Chinese hamster ovary (CHO-K1) cells stably expressing human MRGPRX2 were purchased from Genescript (Piscataway, NJ). The cells were maintained in culture medium (Ham's F-12K) containing 10% (v/v) FBS, 200 μg/mL Zeocin, 100 units/mL penicillin G and 100 μg/mL streptomycin (Life Technologies, Carlsbad, CA). For the assay, the cells were harvested and resuspended with culture medium without Zeocin before plating at 8000 cells per well in 20 μL in 384-well black clear bottom cell culture plates (VWR, Radnor, PA). After 24 hour culture at 37° C. and 5% CO2, the cells were loaded with 20 μL/well of calcium dye (FLIPR Calcium 6 Assay Kit, Molecular Devices, San Jose, CA) diluted in loading buffer (1× Hank's Balanced Salt Solution (HBSS), 5 mM probenecid, 20 mM 4-(2-hydroxyethyl)-1-piperazineethanesulfonic acid (HEPES), pH 7.4, VWR, Radnor, PA) followed with 45 min incubation at 37° C. and 40 min. at r.t. in the dark. Cells were then treated with the addition of 10 uL/well test compounds with a range of increasing concentrations diluted in the assay buffer (1×HBSS, 20 mM HEPES, pH 7.4, VWR, Radnor, PA) with FLIPR Penta (Molecular Devices. San Jose, CA) and incubated for 30 min. at r.t. Ca^2+ release was measured with FLIPR Penta with 10 s basal fluorescence measurement, then 12.5 μL of 5× agonist Cortistatin-14 (Tocris, Minneapolis, MN) at final concentration corresponding to the EC80 were added followed with continued fluorescence signal monitoring for an additional 110 s. The base line adjusted (median of first 10s base line) max value of the Relative Fluorescence Unit (RFU) was plotted against compound concentrations. Wells with no compound were served as the positive controls, and wells with high concentration of reference antagonist were used as negative controls. IC50 curves were globally fitted with 3- or 4-parameter Hill equation in a Genedata Screener (Genedata Basel, Switzerland).
(In general: Calcium assays in cells follow changes in intracellular calcium, usually with a dye or a luminescent sensor.)

With `CC(c1cc2ncc(Oc3ccc(F)cc3F)cc2cn1)N1CCC(F)(F)CC1` (stereo not shown) [Example 1, 3-(2,4-Difluorophenoxy)-7-(1-(4,4-difluoropiperidin-1-yl)ethyl)-1,6-naphthyridine], the figures for the IC50 on MRGPRX2 [1], at MRGPRX2 [2] and on MRGPRX2 [3] were 100 to 1000 nM, 100 to 1000 nM and 0.1 to 100 nM, respectively.
Consider `Fc1ccc(Oc2cnc3cc(C(N4CCCC4c4ccncc4)C(F)(F)F)ncc3c2)c(F)c1` (stereo not shown) [Example 12, 3-(2,4-Difluorophenoxy)-7-(2,2,2-trifluoro-1-(2-(pyridin-4-yl)pyrrolidin-1-yl)ethyl)-1,6-naphthyridine], for which the IC50 at MRGPRX2 [1], on MRGPRX2 [2] and at MRGPRX2 [3] was 0.1 to 100 nM in each case.
On to `O=c1ccc(C2CCCN(C(c3cc4ncc(Oc5ccc(F)cc5F)cc4cn3)C(F)(F)F)C2)cn1CC(F)(F)F` (stereo not shown) [Example 16, 5-(1-(1-(3-(2,4-Difluorophenoxy)-1,6-naphthyridin-7-yl)-2,2,2-trifluoroethyl)piperidin-3-yl)-1-(2,2,2-trifluoroethyl)pyridin-2(1H)-one], for which the IC50 at MRGPRX2 [1], on MRGPRX2 [2] and on MRGPRX2 [3] was 0.1 to 100 nM throughout.
With `O=c1ccc(C2CCCN2C(c2cc3ncc(Oc4ccc(F)cc4F)cc3cn2)C(F)(F)F)c[nH]1` (stereo not shown) [Example 20, 5-(1-(1-(3-(2,4-Difluorophenoxy)-1,6-naphthyridin-7-yl)-2,2,2-trifluoroethyl)pyrrolidin-2-yl)pyridin-2(1H)-one], the IC50 at MRGPRX2 [1] and on MRGPRX2 [2] was 0.1 to 100 nM throughout.
For the compound `Fc1ccc(Oc2cnc3cc(C(N4CCC(F)(F)C4c4ccccc4)C(F)(F)F)ncc3c2)c(F)c1` (stereo not shown) [Example 19, 7-(1-(3,3-Difluoro-2-phenylpyrrolidin-1-yl)-2,2,2-trifluoroethyl)-3-(2,4-difluorophenoxy)-1,6-naphthyridine], the IC50 at MRGPRX2 [1] and at MRGPRX2 [2] was 0.1 to 100 nM in each case.
Turning to `NC(=O)[C@@H]1CCCN1C(c1cc2ncc(Oc3ccc(F)cc3F)cc2cn1)C(F)(F)F` (stereo partly drawn) [Example 14, (2S)-1-(1-(3-(2,4-Difluorophenoxy)-1,6-naphthyridin-7-yl)-2,2,2-trifluoroethyl)pyrrolidine-2-carboxamide], the IC50 at MRGPRX2 [1], at MRGPRX2 [2] and on MRGPRX2 [3] was 0.1 to 100 nM in each case.
As for `CC(c1cc2ncc(Oc3ccc(F)cc3F)cc2cn1)N1CCC(F)(F)C(c2ccc(=O)[nH]c2)C1` (stereo not shown) [Example 4, 5-(1-(1-(3-(2,4-Difluorophenoxy)-1,6-naphthyridin-7-yl)ethyl)-4,4-difluoropiperidin-3-yl)pyridin-2(1H)-one], the IC50 on MRGPRX2 [1], on MRGPRX2 [2] and at MRGPRX2 [3] was 0.1 to 100 nM in each case.
In the case of `Fc1ccc(Oc2cnc3cc(C(N4CCC(F)(F)CC4)C(F)(F)F)ncc3c2)c(F)c1` (stereo not shown) [Example 6, 3-(2,4-Difluorophenoxy)-7-(1-(4,4-difluoropiperidin-1-yl)-2,2,2-trifluoroethyl)-1,6-naphthyridine], the IC50 on MRGPRX2 [1], at MRGPRX2 [2] and on MRGPRX2 [3] was 0.1 to 100 nM throughout.
As to `Fc1ccc(Oc2cnc3cc(C(N4CCCC4c4ccccc4)C(F)(F)F)ncc3c2)c(F)c1` (stereo not shown) [Example 7, 3-(2,4-Difluorophenoxy)-7-(2,2,2-trifluoro-1-(2-phenylpyrrolidin-1-yl)ethyl)-1,6-naphthyridine], the IC50 at MRGPRX2 [1], at MRGPRX2 [2] and on MRGPRX2 [3] was 0.1 to 100 nM throughout.
Take `CC(c1cc2ncc(Oc3ccc(F)cc3F)cc2cn1)N1CCCC(F)(F)C1` (stereo not shown) [Example 2, 3-(2,4-Difluorophenoxy)-7-(1-(3,3-difluoropiperidin-1-yl)ethyl)-1,6-naphthyridine]: the IC50 lay in the range of 100 to 1000 nM on MRGPRX2 [1] and 0.1 to 100 nM on MRGPRX2 [3].
Regarding `Fc1ccc(Oc2cnc3cc(C(N4CC(F)(F)CC4c4ccccc4)C(F)(F)F)ncc3c2)c(F)c1` (stereo not shown) [Example 18, 7-(1-(4,4-Difluoro-2-phenylpyrrolidin-1-yl)-2,2,2-trifluoroethyl)-3-(2,4-difluorophenoxy)-1,6-naphthyridine], the IC50 at MRGPRX2 [1] and at MRGPRX2 [2] was 0.1 to 100 nM throughout.
Turning to `Fc1ccc(Oc2cnc3cc(C(N4CCCCC4)C(F)(F)F)ncc3c2)c(F)c1` (stereo not shown) [Example 5, 3-(2,4-Difluorophenoxy)-7-(2,2,2-trifluoro-1-(piperidin-1-yl)ethyl)-1,6-naphthyridine], the IC50 at MRGPRX2 [1] lay in the range of 100 to 1000 nM; at MRGPRX2 [2] it was 0.1 to 100 nM; at MRGPRX2 [3] it was 0.1 to 100 nM.
`COc1ccc(C2CCCN2C(c2cc3ncc(Oc4ccc(F)cc4F)cc3cn2)C(F)(F)F)cc1` (stereo not shown) [Example 15, 3-(2,4-Difluorophenoxy)-7-(2,2,2-trifluoro-1-(2-(4-methoxyphenyl)pyrrolidin-1-yl)ethyl)-1,6-naphthyridine]: the half-inhibitory concentration (IC50) at MRGPRX2 [1], on MRGPRX2 [2] and at MRGPRX2 [3] was 0.1 to 100 nM each time.
For `O=c1ccc(C2CN(C(c3cc4ncc(Oc5ccc(F)cc5F)cc4cn3)C(F)(F)F)CCC2(F)F)c[nH]1` (stereo not shown) [Example 17, 5-(1-(1-(3-(2,4-Difluorophenoxy)-1,6-naphthyridin-7-yl)-2,2,2-trifluoroethyl)-4,4-difluoropiperidin-3-yl)pyridin-2(1H)-one], the IC50 at MRGPRX2 [1] and at MRGPRX2 [2] was 0.1 to 100 nM in each case.
For the compound `CC(c1cc2ncc(Oc3ccc(F)cc3F)cc2cn1)N1CCCC1c1ccccc1` (stereo not shown) [Example 3, 3-(2,4-Difluorophenoxy)-7-(1-(2-phenylpyrrolidin-1-yl)ethyl)-1,6-naphthyridine], the IC50 at MRGPRX2 [1], at MRGPRX2 [2] and on MRGPRX2 [3] was 0.1 to 100 nM throughout.
